From patent publication US9302999B2, “Substituted triazoles as herbicides” (E. I. DU PONT DE NEMOURS AND COMPANY, priority 2012, dated 2016)

Legend:
Type in all cases: in vivo
[1] = test system: velvetleaf (Abutilon theophrasti); assay: Test A pre-/postemergence: velvetleaf; details: for Velvetleaf plant response rating: Postemergence; for Plant response rating, Velvetleaf: Preemergence
Procedure, shortened: (§1)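 Pre: directed soil spray after planting in loam + sand. Post: same formulation (non-phytotoxic solvent + surfactant) on 1–2-leaf plants, 2–10 cm. Greenhouse ~10 d; visual injury 0–100 vs untreated.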

rice (Oryza sativa) = assay: Test B flooded paddy: rice; details: Flood; 250 g ai/ha; applied to paddy water at 2-leaf stage; visually evaluated after 13 to 15 days
Procedure, shortened: (§2)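 Plants were grown to the 2-leaf stage and pots flooded to 3 cm above soil. Compounds were applied directly into the paddy water, with depth kept for the test. After 13–15 days in greenhouse, response was rated visually against controls on a 0 (no effect) to 100 (complete control) scale.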

[2] = test system: ducksalad (Heteranthera limosa); assay: Test B flooded paddy: ducksalad; details: Flood; 250 g ai/ha; applied to paddy water at 2-leaf stage; visually evaluated after 13 to 15 days
Procedure: (§3) Seeds selected from rice (Oryza sativa), sedge, umbrella (small-flower umbrella sedge Cyperus difformis), ducksalad (Heteranthera limosa), and barnyardgrass (Echinochloa crus-galli) were grown to the 2-leaf stage for testing. At time of treatment, test pots were flooded to 3 cm above the soil surface, treated by application of test compounds directly to the paddy water, and then maintained at that water depth for the duration of the test.
(§4) Treated plants and controls were maintained in a greenhouse for 13 to 15 days, after which time all species were compared to controls and visually evaluated. Plant response ratings, summarized in Table B, are based on a scale of 0 to 100 where 0 is no effect and 100 is complete control. A dash (-) response means no test result.

corn (Zea mays) = assay: Test A pre-/postemergence: corn; details: for Corn plant response rating: Postemergence; for Plant response rating, Corn: Preemergence
Procedure, shortened: as §1

[3] = test system: morningglory (Ipomoea spp.); assay: Test A pre-/postemergence: morningglory; details: for Morningglory plant response rating: Postemergence; for Plant response rating, Morningglory: Preemergence
Procedure, shortened: as §1

[4] = test system: barnyardgrass (Echinochloa crus-galli); assay: Test A pre-/postemergence: barnyardgrass; details: for Barnyardgrass plant response rating: Postemergence; for Plant response rating, Barnyardgrass: Preemergence
Procedure, shortened: as §1

[5] = test system: sedge, umbrella (small-flower umbrella sedge Cyperus difformis); assay: Test B flooded paddy: sedge, umbrella; details: Flood; 250 g ai/ha; applied to paddy water at 2-leaf stage; visually evaluated after 13 to 15 days
Procedure: as §3, §4

[6] = test system: crabgrass, large (large crabgrass, Digitaria sanguinalis); assay: Test A pre-/postemergence: crabgrass, large; details: for Crabgrass, Large plant response rating: Postemergence; for Plant response rating, Crabgrass, Large: Preemergence
Procedure, shortened: as §1

[7] = test system: barnyardgrass (Echinochloa crus-galli); assay: Test B flooded paddy: barnyardgrass; details: Flood; 250 g ai/ha; applied to paddy water at 2-leaf stage; visually evaluated after 13 to 15 days
Procedure, shortened: as §2

[8] = test system: foxtail, giant (giant foxtail, Setaria faberii); assay: Test A pre-/postemergence: foxtail, giant; details: for Foxtail, Giant plant response rating: Postemergence; for Plant response rating, Foxtail, Giant: Preemergence
Procedure, shortened: as §1

[9] = test system: wheat (Triticum aestivum); assay: Test A pre-/postemergence: wheat; details: for Wheat plant response rating: Postemergence; for Plant response rating, Wheat: Preemergence
Procedure, shortened: as §1

[10] = test system: pigweed (Amaranthus retroflexus); assay: Test A pre-/postemergence: pigweed; details: for Pigweed plant response rating: Postemergence; for Plant response rating, Pigweed: Preemergence
Procedure, shortened: as §1

[11] = 31 g ai/ha, visual rating on 0 to 100 scale (0 no effect, 100 complete control), approximately ten days
[12] = 125 g ai/ha, 0 to 100 scale, 0 is no effect, 100 is complete control
[13] = 31 g ai/ha, 0 to 100 scale, 0 is no effect, 100 is complete control
[14] = 125 g ai/ha, 0 to 100 scale (0 no effect, 100 complete control)
[15] = 500 g ai/ha, visual rating on 0 to 100 scale (0 no effect, 100 complete control), approximately ten days
[16] = 500 g ai/ha, 0 to 100 scale, 0 is no effect, 100 is complete control

COc1nn(-c2ccc(F)cc2)nc1Oc1ccnc(C(F)(F)F)c1 [Compound 34]
Velvetleaf plant response rating [1, 11]: 0
Velvetleaf plant response rating [1, 12]: 10
Plant response rating, Velvetleaf [1, 13]: 0
Plant response rating, Velvetleaf [1, 14]: 0
Plant response rating, Rice (0 to 100 scale, 0 is no effect, 100 is complete control) (rice (Oryza sativa)): 35
Plant response rating, Ducksalad (0 to 100 scale, 0 is no effect, 100 is complete control) [2]: 75
Corn plant response rating (corn (Zea mays); [11]): 10
Corn plant response rating (corn (Zea mays); [12]): 10
Plant response rating, Corn (corn (Zea mays); [13]): 0
Plant response rating, Corn (corn (Zea mays); [14]): 0
Morningglory plant response rating [3, 11]: 20
Morningglory plant response rating [3, 12]: 30
Plant response rating, Morningglory [3, 13]: 0
Plant response rating, Morningglory [3, 14]: 0
Barnyardgrass plant response rating [4, 11]: 0
Barnyardgrass plant response rating [4, 12]: 10
Plant response rating, Barnyardgrass [4, 13]: 0
Plant response rating, Barnyardgrass [4, 14]: 0
Plant response rating, Sedge, Umbrella (0 to 100 scale, 0 is no effect, 100 is complete control) [5]: 90
Crabgrass, Large plant response rating [6, 11]: 10
Crabgrass, Large plant response rating [6, 12]: 20
Plant response rating, Crabgrass, Large [6, 13]: 0
Plant response rating, Crabgrass, Large [6, 14]: 50
Plant response rating, Barnyardgrass (0 to 100 scale, 0 is no effect, 100 is complete control) [7]: 65
Foxtail, Giant plant response rating [8, 11]: 10
Foxtail, Giant plant response rating [8, 12]: 20
Plant response rating, Foxtail, Giant [8, 13]: 0
Plant response rating, Foxtail, Giant [8, 14]: 30
Wheat plant response rating [9, 11]: 0
Wheat plant response rating [9, 12]: 0
Plant response rating, Wheat [9, 13]: 0
Plant response rating, Wheat [9, 14]: 0
Pigweed plant response rating [10, 11]: 20
Pigweed plant response rating [10, 12]: 80
Plant response rating, Pigweed [10, 13]: 0
Plant response rating, Pigweed [10, 14]: 10

Cc1nn(-c2ccccc2)nc1C(=O)c1cccc(C(F)(F)F)c1 [Compound 43]
Velvetleaf plant response rating [1, 12]: 20
Velvetleaf plant response rating [1, 15]: 20
Plant response rating, Velvetleaf [1, 14]: 0
Plant response rating, Velvetleaf [1, 16]: 0
Plant response rating, Rice (0 to 100 scale, 0 is no effect, 100 is complete control) (rice (Oryza sativa)): 0
Plant response rating, Ducksalad (0 to 100 scale, 0 is no effect, 100 is complete control) [2]: 85
Corn plant response rating (corn (Zea mays); [12]): 20
Corn plant response rating (corn (Zea mays); [15]): 30
Plant response rating, Corn (corn (Zea mays); [14]): 0
Plant response rating, Corn (corn (Zea mays); [16]): 10
Morningglory plant response rating [3, 12]: 0
Morningglory plant response rating [3, 15]: 40
Barnyardgrass plant response rating [4, 12]: 10
Barnyardgrass plant response rating [4, 15]: 20
Plant response rating, Barnyardgrass [4, 14]: 0
Plant response rating, Barnyardgrass [4, 16]: 20
Plant response rating, Sedge, Umbrella (0 to 100 scale, 0 is no effect, 100 is complete control) [5]: 100
Crabgrass, Large plant response rating [6, 12]: 30
Crabgrass, Large plant response rating [6, 15]: 40
Plant response rating, Crabgrass, Large [6, 14]: 30
Plant response rating, Crabgrass, Large [6, 16]: 80
Plant response rating, Barnyardgrass (0 to 100 scale, 0 is no effect, 100 is complete control) [7]: 0
Foxtail, Giant plant response rating [8, 12]: 20
Foxtail, Giant plant response rating [8, 15]: 30
Plant response rating, Foxtail, Giant [8, 14]: 20
Plant response rating, Foxtail, Giant [8, 16]: 90
Wheat plant response rating [9, 12]: 0
Wheat plant response rating [9, 15]: 30
Plant response rating, Wheat [9, 14]: 0
Plant response rating, Wheat [9, 16]: 0
Pigweed plant response rating [10, 12]: 50
Pigweed plant response rating [10, 15]: 70
Plant response rating, Pigweed [10, 14]: 50
Plant response rating, Pigweed [10, 16]: 60
